Structures are written as SMILES.

Data set [1] in a line: Proof-of-concept model: diffusion through agarose hydrogel container (version 1.0) in modified flow-through cell. It counts as physicochemical. To be noted: plateau at about 7 h, PBS with Tween 80. An excerpt: FIG. 4A illustrates a hydrogel container 402 (left) and a modified flow-through cell 404 (right) used as a proof-of-concept model for the diffusion experiment shown in the first flow chart 300A of FIG. 3. The proof-of-concept model was designed to affirm the discriminative power of an agarose hydrogel under continuous media flow. Serving as a physicochemical barrier between drug and media, it is supposed to generate data ascertaining differences in diffusion behaviour and gel interaction of closely related drug formulations. For this, Actrapid® (regular human insulin, hexamer) and Apidra® (insulin glulisine) were chosen as model peptide formulations for the initial setup. m-Cresol, present in both formulations, was quantified as well, serving as an internal standard.
A cylindrical gel that forms both the physicochemical barrier and pocket was prepared with the help of custom-made plastic receptacles. The gel consists of 2% (w/w) agarose dissolved in PBS. […] After cooling at room temperature, the gel is formed and ready to use. […]
FIG. 4B illustrates an assay setup for the proof-of-concept model of FIG. 4A for in vitro drug testing. […] Quantification of insulin and m-cresol in the medium was then carried out by HPLC. Subsequently, the cumulative diffusion of the model drugs was calculated by comparing the diffused amount with the initially added drug concentration. […]

Data set [2] can be described thus: Diffusion through hydrogel container (version 2.0) in USP apparatus IV, PBS medium. It counts as physicochemical. To be noted: at 8.25 h; caffeine stock solution 4 mg/mL, 1 mL; 100 mL PBS; 34 C. Here is the method:
The compendial flow-through cell 504 of the USP apparatus IV 502 is an enclosed system with a heating mantle that allows a controlled medium flow from the bottom to the top of the cell 504. The ring 114 was mounted onto a cylindrical mould and the gel composition was filled into the mould. A punch was used to create interior pockets of similar size. The drug formulation 106 was then injected into the interior pocket of the receptacle 102, and the ring 114 was sealed with a rubber plug 116. The USP apparatus IV 502, as well as the various flow-through cells 504, have been described by various pharmacopoeias and related literature. For this diffusion experiment, a SOTAX CP7-35 Piston Pump 506, alone with a fraction collector 508 and the SOTAX CE7 dissolution system, was used. Media 510 was filled into the reservoir 512 with magnetic stirrers running at 150 rpm. The dissolution apparatus was operated in a closed-loop configuration with a constant flow of 8±0.4 mL/min for all experiments. […] Caffeine was quantified with a ultraviolet-visible (UV/Vis) spectrometer. Subsequently, the cumulative diffusion of caffeine was calculated by comparing the diffused amount with the initially added drug concentration. […] In the next step, new containers 100 were evaluated with Actrapid® and […]®. […]

In the case of `Cc1cccc(O)c1` [m-cresol, m-Cresol], the “cumulative diffusion of m-cresol, maximum” value in data set [1] (m-cresol inside Apidra) was found to be 88±0.2%. The “cumulative diffusion of m-cresol, plateau” value in data set [1] (m-cresol inside the Actrapid formulation) came out at 84±1.0%.
For `Cn1c(=O)c2c(ncn2C)n(C)c1=O` [caffeine], in data set [2], the “cumulative diffusion of caffeine” value is “around 101±3%”.

The record behind these values is patent US20260131324A1, “A CONTAINER FOR IN VITRO DRUG TESTING” (National University of Singapore, priority 2022, published 2026).
